How the values were obtained:
Conditions in all cases: 72 h
Calu-3 [1] = assay: cell viability relative to DMSO; higher = less toxic
U2OS [2] = assay: as above
Caco-2 [3] = assay: as above
HepG2 [4] = assay: as above
Calu-3 [5] = assay: drug sensitivity score (DSS) for viability; higher = more toxic; extreme values may be limits of the assay
U2OS [6] = assay: as above
Caco-2 [7] = assay: as above
HepG2 [8] = assay: as above
Calu-3 [9] = assay: relative viability EC50 (midpoint between 100% and the lowest measured viability); higher = less toxic
U2OS [10] = assay: as above
Caco-2 [11] = assay: as above
HepG2 [12] = assay: as above
Vero E6 [13] = assay: drug sensitivity score (DSS) for viability; higher = more toxic; extreme values may be limits of the assay
Vero E6 [14] = assay: cell viability relative to DMSO; higher = less toxic
Vero E6 [15] = assay: relative viability EC50 (midpoint between 100% and the lowest measured viability); higher = less toxic

| Compound | cell viability (Calu-3 [1]; 1 nM) [%] | cell viability (Calu-3 [1]; 10 nM) [%] | cell viability (Calu-3 [1]; 100 nM) [%] | cell viability (Calu-3 [1]; 1000 nM) [%] | cell viability (Calu-3 [1]; 10000 nM) [%] | cell viability (U2OS [2]; 1 nM) [%] | cell viability (U2OS [2]; 10 nM) [%] | cell viability (U2OS [2]; 100 nM) [%] | cell viability (U2OS [2]; 1000 nM) [%] | cell viability (U2OS [2]; 10000 nM) [%] | cell viability (Caco-2 [3]; 1 nM) [%] | cell viability (Caco-2 [3]; 10 nM) [%] | cell viability (Caco-2 [3]; 100 nM) [%] | cell viability (Caco-2 [3]; 1000 nM) [%] | cell viability (Caco-2 [3]; 10000 nM) [%] | cell viability (HepG2 [4]; 1 nM) [%] | cell viability (HepG2 [4]; 10 nM) [%] | cell viability (HepG2 [4]; 100 nM) [%] | cell viability (HepG2 [4]; 1000 nM) [%] | cell viability (HepG2 [4]; 10000 nM) [%] | drug sensitivity score (Calu-3 [5]) | drug sensitivity score (U2OS [6]) | drug sensitivity score (Caco-2 [7]) | drug sensitivity score (HepG2 [8]) | relative viability EC50 (Calu-3 [9]) [µM] | relative viability EC50 (U2OS [10]) [µM] | relative viability EC50 (Caco-2 [11]) [µM] | relative viability EC50 (HepG2 [12]) [µM] | drug sensitivity score (Vero E6 [13]) | cell viability (Vero E6 [14]; 1 nM) [%] | cell viability (Vero E6 [14]; 10 nM) [%] | cell viability (Vero E6 [14]; 100 nM) [%] | cell viability (Vero E6 [14]; 1000 nM) [%] | cell viability (Vero E6 [14]; 10000 nM) [%] | relative viability EC50 (Vero E6 [15]) [µM] |
| --- | --- | --- | --- | --- | --- | --- | --- | --- | --- | --- | --- | --- | --- | --- | --- | --- | --- | --- | --- | --- | --- | --- | --- | --- | --- | --- | --- | --- | --- | --- | --- | --- | --- | --- | --- |
| COC(=O)N[C@H](C(=O)N1CCC[C@H]1c1ncc(-c2ccc(-c3ccc(-c4cnc([C@@H]5CCCN5C(=O)[C@@H](NC(=O)OC)C(C)C)[nH]4)cc3)cc2)[nH]1)C(C)C [daclatasvir] | 107 | 90.6 | 93.1 | 96.1 | 99.7 | 104 | 101 | 101 | 102 | 90.3 | 104 | 96.1 | 107 | 98.7 | 83.1 | 120 | 116 | 112 | 106 | 92 | 0 | 0 | 0.5 | 0 | > 10 | > 10 | > 10 | > 10 | – | – | – | – | – | – | – |
| CN1C[C@@H]2C[C@H]1CN2c1cc2c(cc1F)c(=O)c(C(=O)O)cn2C1CC1 [danofloxacin] | – | – | – | – | – | – | – | – | – | – | – | – | – | – | – | – | – | – | – | – | 0 | 0 | – | 0 | – | – | – | – | 0 | – | – | – | – | – | – |
| CCCCCCCCCC(=O)OC1(c2ccc(Cl)cc2)CCN(CCCC(=O)c2ccc(F)cc2)CC1 [haloperidol-decanoate] | 103 | 105 | 112 | 99.8 | 114 | 107 | 101 | 104 | 101 | 99.2 | 104 | 104 | 104 | 93.5 | 105 | 112 | 108 | 106 | 112 | 97.1 | 0 | 0 | 0 | 0 | > 10 | > 10 | > 10 | > 10 | – | – | – | – | – | – | – |
| O=P1(NCCCl)OCCCN1CCCl (stereo not drawn) [ifosfamide] | 95.2 | 104 | 97.7 | 95.5 | 88.7 | – | – | – | – | – | 104 | 107 | 94.1 | 95.4 | 101 | 107 | 98.1 | 95.9 | 102 | 109 | 0 | – | 0 | 0 | > 10 | – | > 10 | > 10 | – | – | – | – | – | – | – |
| CC(=O)N(CC(O)CN(C(C)=O)c1c(I)c(C(=O)NCC(O)CO)c(I)c(C(=O)NCC(O)CO)c1I)c1c(I)c(C(=O)NCC(O)CO)c(I)c(C(=O)NCC(O)CO)c1I (stereo not drawn) [iodixanol] | 88.1 | 107 | 95.9 | 97.2 | 96.3 | 95.4 | 101 | 95.6 | 108 | 97.5 | 96.9 | 102 | 87 | 102 | 102 | 107 | 99.2 | 108 | 102 | 105 | 0 | 0 | 0 | 0 | > 10 | > 10 | > 10 | > 10 | – | – | – | – | – | – | – |
| Nc1nc(N)nc(-c2cc(Cl)ccc2Cl)n1 [irsogladine] | 112 | 93.7 | 91.5 | 110 | 99.1 | 105 | 97.3 | 101 | 100 | 99.2 | 101 | 99 | 101 | 102 | 108 | 89.4 | 93.9 | 94.6 | 93.5 | 105 | 0 | 0 | 0 | 0 | > 10 | > 10 | > 10 | > 10 | – | – | – | – | – | – | – |
| CC(C)(C)c1cc(C(C)(C)C)c(NC(=O)c2c[nH]c3ccccc3c2=O)cc1O [ivacaftor] | 97.2 | 103 | 93.3 | 91.1 | 84.1 | 100 | 103 | 95.3 | 103 | 86.8 | 104 | 98.8 | 99.6 | 101 | 81.6 | 105 | 105 | 100 | 100 | 98.3 | 0.7 | 0.1 | 0.4 | 0 | > 10 | > 10 | > 10 | > 10 | – | – | – | – | – | – | – |
| CCC[C@@H]1C[C@@H](C(=O)N[C@@H]([C@H]2O[C@H](SC)[C@H](O)[C@@H](O)[C@H]2O)[C@@H](C)O)N(C)C1 [lincomycin] | 99.5 | 92.6 | 99.1 | 98.7 | 103 | – | – | – | – | – | 111 | 94.2 | 107 | 97.2 | 111 | – | – | – | – | – | 0 | – | 0 | – | > 10 | – | > 10 | – | 0 | 97.6 | 103 | 94.9 | 89.6 | 101 | > 10 |
| C[C@@H](O)[C@H]1C(=O)N2C(C(=O)O)=C(S[C@@H]3CN[C@H](C(=O)N(C)C)C3)[C@H](C)[C@H]12 [meropenem] | 96.1 | 109 | 88.9 | 104 | 98.5 | 101 | 102 | 99.9 | 104 | 102 | 83.8 | 99.6 | 91.3 | 111 | 84.3 | – | – | – | – | – | 0 | 0 | 0.1 | – | > 10 | > 10 | > 10 | – | – | – | – | – | – | – | – |
| O=S(=O)(F)Cc1ccccc1 [phenylmethylsulfonyl-fluoride] | 105 | 101 | 103 | 98.6 | 102 | 106 | 99.8 | 104 | 102 | 101 | 102 | 95.6 | 103 | 99.7 | 99.2 | 109 | 114 | 97.8 | 111 | 96.7 | 0 | 0 | 0 | 0 | > 10 | > 10 | > 10 | > 10 | – | – | – | – | – | – | – |
| O=C1CNC(=O)CN1 [piperazinedione] | 91.8 | 99.4 | 91.8 | 93.4 | 94 | 99 | 99 | 97.4 | 101 | 99.8 | 98.3 | 102 | 98.9 | 99.4 | 94.8 | 102 | 94.9 | 96.4 | 100 | 103 | 0 | 0 | 0 | 0 | > 10 | > 10 | > 10 | > 10 | 2.1 | 99.5 | 96.4 | 102 | 91.4 | 74.7 | – |
| C=CC1=C(C)c2cc3[nH]c(cc4nc(cc5[nH]c(cc1n2)c(C)c5CCC(=O)O)C(CCC(=O)O)=C4C)c(C)c3C=C [protoporphyrin-IX] | 97.4 | 93.8 | 105 | 97.5 | 84.1 | 101 | 101 | 98.2 | 101 | 88.6 | 101 | 102 | 92.7 | 94.4 | 76.4 | 102 | 91.1 | 105 | 94.2 | 84.6 | 0.6 | 0 | 1.4 | 0.8 | > 10 | > 10 | > 10 | > 10 | 2.6 | 99.8 | 71.4 | 110 | 75.2 | 78.6 | – |
| CNC(=O)c1cc(Oc2ccc(NC(=O)Nc3ccc(Cl)c(C(F)(F)F)c3)c(F)c2)ccn1 [regorafenib] | 102 | 98.8 | 105 | 104 | 74.2 | 96.9 | 103 | 100 | 99.8 | 54.5 | 100 | 105 | 97 | 108 | 66.3 | 102 | 106 | 94.4 | 59.8 | 16.5 | 0.8 | 2.4 | 1.2 | 9.3 | – | – | – | 1.03 | 1.8 | 94.7 | 98.9 | 104 | 102 | 60.6 | – |
| O=C(O)c1ccccc1O [salicylic-acid] | 105 | 91.8 | 90.6 | 88.9 | 105 | 99.8 | 99.6 | 98.5 | 96.5 | 102 | 103 | 97 | 105 | 94.7 | 96.6 | 95.4 | 96.1 | 99.3 | 97 | 108 | 0 | 0 | 0 | 0 | > 10 | > 10 | > 10 | > 10 | – | – | – | – | – | – | – |
| CC(C)(C)NCC(O)COc1ccc(NC(=O)NC2CCCCC2)cc1 (stereo not drawn) [talinolol] | – | – | – | – | – | – | – | – | – | – | – | – | – | – | – | – | – | – | – | – | 0 | 0 | – | 0 | – | – | – | – | 0 | – | – | – | – | – | – |
| Cc1coc2c1C(=O)C(=O)c1c-2ccc2c1CCCC2(C)C [tanshinone-IIA] | 109 | 105 | 101 | 94.1 | 101 | 102 | 99.2 | 95.7 | 99.6 | 74.9 | 97.6 | 95.7 | 92.9 | 103 | 77 | 90.6 | 105 | 96.5 | 91.4 | 55.4 | 0 | 1 | 0.7 | 3.7 | > 10 | – | > 10 | – | 0 | 106 | 104 | 103 | 101 | 97.4 | > 10 |
| Cc1ccc(NC2=NCCN2)c(Cl)c1 [tolonidine] | 101 | 112 | 96.5 | 106 | 99.3 | 101 | 106 | 97.3 | 102 | 96.3 | 90.3 | 101 | 93.9 | 99 | 99.5 | 116 | 109 | 109 | 99 | 111 | 0 | 0 | 0 | 0 | > 10 | > 10 | > 10 | > 10 | – | – | – | – | – | – | – |
| NC[C@H]1CC[C@H](C(=O)O)CC1 [tranexamic-acid] | 101 | 95.5 | 87.8 | 94.7 | 90.9 | – | – | – | – | – | 106 | 105 | 104 | 98.3 | 96.4 | – | – | – | – | – | 0 | – | 0 | – | > 10 | – | > 10 | – | 0 | 98.1 | 101 | 105 | 94.4 | 103 | > 10 |
